Laboratory results as given in KR20130112248A, “피라졸로피리미딘 유도체 화합물, 이를 포함하는 산화질소 생성 억제용 조성물 및 뇌신경 질환 예방 및 치료용 약학적 조성물” (한국과학기술연구원, priority 2012, dated 2013).

System: NO production in BV-2 cells [NO 생성; BV-2 세포]
Experiment: Nitric oxide (NO) quantification (nitrite, Griess reaction) in LPS-activated BV-2 cells
Format: cell-based
Settings: LPS 0.2 ㎍/mL, 24 h co-treatment, nitrite by Griess at 540 nm; for activity at 20 µM / activity at 30 µM: Mus musculus, BV-2, 24 h; for activity at 20 µM / NO (% of LPS): 20 μM; for NO (% of LPS): 1440 min

SMILES	activity at 20 µM [%]	also measured
COc1ccccc1CNc1nc(SC)nc2c1cnn2Cc1ccccc1 [화합물 16zc, N-(2-메톡시벤질)-1-벤질-6-(메틸티오)-1H-피라졸로[3,4-d]피리미딘-4-아민]	50 ± 1.1	–
CSc1nc(NCc2ccccn2)c2cnn(C(C)(C)C)c2n1 [화합물 17m, 1-t-뷰틸-6-(메틸티오)-N-((피리딘-2-일)메틸)-1H-피라졸로[3,4-d]피리미딘-4-아민]	92 ± 6.6	–
CSc1nc(Cl)c2cnn(-c3ccccc3)c2n1 [5e, 1-페닐-4-클로로-6-(메틸티오)피라졸로[3,4-d]피리미딘]	50 ± 7	–
CSc1nc(NCc2ccccc2)c2cnn(Cc3ccccc3)c2n1 [화합물 16a, 1-벤질-4-벤질아미노-6-(메틸티오)피라졸로[3,4-d]피리미딘]	35 ± 0.5	–
CC(Nc1nc(N(C)C)nc2c1cnn2Cc1ccccc1)c1ccccc1 (stereo not shown) [화합물 24g, 1-벤질-N6,N6-디메틸-N4-(1-페닐에틸)-1H-피라졸로[3,4-d]피리미딘-4,6-디아민]	63 ± 2.6	–
CSc1nc(N[C@H](C)c2ccccc2)c2cnn(C(C)(C)C)c2n1 [화합물 17g, (R)-1-t-뷰틸-4-(1-페닐에틸)아미노-6-(메틸티오)피라졸로[3,4-d]피리미딘]	–	NO (% of LPS): 42±18 % of LPS
CSc1nc(NCCc2ccccc2)c2cn[nH]c2n1 [6c, 4-펜에틸아미노-6-(메틸티오)피라졸로[3,4-d]피리미딘]	91 ± 4	–
C=CCn1ncc2c(NCc3cccc(OC)c3)nc(SC)nc21 [화합물 13j, N-(3-메톡시벤질)-1-알릴-6-(메틸티오)-1H-피라졸로[3,4-d]피리미딘-4-아민]	87 ± 0.2	–
COc1cccc(CCn2ncc3c(NCc4ccccc4C)nc(SC)nc32)c1 [화합물 18c, N-(2-메틸벤질)-1-(3-메톡시펜에틸)-6-(메틸티오)-1H-피라졸로[3,4-d]피리미딘-4-아민]	37 ± 7.9	–
CSc1nc(Cl)c2cnn(C(C)(C)C)c2n1 [5g, 1-t-뷰틸-4-클로로-6-(메틸티오)피라졸로[3,4-d]피리미딘]	15 ± 18	–
CC(Nc1nc(S(C)(=O)=O)nc2c1cnn2Cc1ccccc1)C1CCCCC1 (stereo not shown) [화합물 23t, 1-벤질-N-(1-사이클로헥실에틸)-6-(메틸설포닐)-1H-피라졸로[3,4-d]피리미딘-4-아민]	42 ± 2.6	–
CSc1ncc2cn[nH]c2n1 [7a, 6-(메틸티오)피라졸로[3,4-d]피리미딘]	–	activity at 30 µM: 79 ± 1%
CC(Nc1nc([S+](C)[O-])nc2c1cnn2Cc1ccccc1)c1ccccc1 (stereo not shown) [화합물 22j, 1-벤질-6-(메틸설파이닐)-N-(1-페닐에틸)-1H-피라졸로[3,4-d]피리미딘-4-아민]	–	NO (% of LPS): 70±3.9 % of LPS
CSc1nc(NC(c2ccccc2)c2ccc(Cl)cc2)c2cnn(-c3ccc(C)cc3)c2n1 (stereo not shown) [화합물 21g, N-((4-클로로페닐)(페닐)메틸)-6-(메틸티오)-1-p-톨릴-1H-피라졸로[3,4-d]피리미딘-4-아민]	79 ± 1.8	–
CCN(CC)c1nc(SC)nc2c1cnn2-c1ccccc1 [화합물 15w, 1-페닐-4-다이에틸아미노-6-(메틸티오)피라졸로[3,4-d]피리미딘]	79 ± 3	–
CSc1nc(NCc2ccccc2Cl)c2cnn(-c3ccc(C)cc3)c2n1 [화합물 21a, N-(2-클로로벤질)-6-(메틸티오)-1-p-톨릴-1H-피라졸로[3,4-d]피리미딘-4-아민]	37 ± 10.7	–
Cc1ccc(-n2ncc3c(NCc4ccccc4Cl)nc(S(C)(=O)=O)nc32)cc1 [화합물 23l, N-(2-클로로벤질)-6-(메틸설포닐)-1-p-톨릴-1H-피라졸로[3,4-d]피리미딘-4-아민]	30 ± 37.4	–
CSc1nc2c(cnn2Cc2ccccc2)c(=S)[nH]1 [9c, 1-벤질-6-(메틸티오)피라졸로[3,4-d]피리미딘-4-티온]	79 ± 5	–
CSc1nc(Cl)c(C(=O)c2ccccc2)c(Cl)n1 [compound 29, 1-[(4,6-다이클로로-2-(메틸티오)피리미딘)-5-일]-페닐케톤]	35 ± 12	–
CS(=O)(=O)c1nc(NC(c2ccccc2)c2ccc(Cl)cc2)c2cnn(Cc3ccccc3)c2n1 (stereo not shown) [화합물 23s, 1-벤질-N-((4-클로로페닐)(페닐)메틸)-6-(메틸설포닐)-N-(1-페닐에틸)-1H-피라졸로[3,4-d]피리미딘-4-아민]	54 ± 2.3	–
COc1cccc(CCn2ncc3c(NCc4ccc(C)cc4)nc(SC)nc32)c1 [화합물 18f, 1-(3-메톡시펜에틸)-N-(4-메틸벤질)-6-(메틸티오)-1H-피라졸로[3,4-d]피리미딘-4-아민]	56 ± 3.1	–
COc1cccc(CNc2nc(SC)nc3c2cnn3C)c1 [화합물 12k, 1-메틸-4-(3-메톡시벤질)아미노-6-(메틸티오)피라졸로[3,4-d]피리미딘]	94 ± 5	–
CSc1nc(NCc2ccccn2)c2cn[nH]c2n1 [6y, 6-(메틸티오)-N-((피리딘-2-일)메틸)-1H-피라졸로[3,4-d]피리미딘-4-아민]	90 ± 2.9	–
CCCCNc1nc(NC(C)c2ccccc2)c2cnn(Cc3ccccc3)c2n1 (stereo not shown) [화합물 24f, 1-벤질-N6-뷰틸-N4-(1-페닐에틸)-1H-피라졸로[3,4-d]피리미딘-4,6-디아민]	–	NO (% of LPS): 9±1 % of LPS
Cc1ccccc1CNc1nc(S(C)(=O)=O)nc2c1cnn2-c1ccc(F)cc1 [화합물 23k, N-(2-메틸벤질)-1-(4-플루오로페닐)-6-(메틸설포닐)-1H-피라졸로[3,4-d]피리미딘-4-아민]	35 ± 4.6	–
CSc1nc(NCCO)c2c(I)n[nH]c2n1 [11b, 3-아이오도-4-(1-하이드록시에틸)아미노-6-(메틸티오)피라졸로[3,4-d]피리미딘]	–	activity at 30 µM: 82 ± 7%
CSc1nc(SCc2ccccc2Cl)c2cnn(Cc3ccccc3)c2n1 [화합물 16s, 4-(2-클로로벤질티오)-1-벤질-6-(메틸티오)-1H-피라졸로[3,4-d]피리미딘]	66 ± 2.6	–
CSc1nc(NCc2ccc(C)cc2)c2cnn(-c3ccc(F)cc3)c2n1 [화합물 20f, N-(4-메틸벤질)-1-(4-프루오로페닐)-6-(메틸티오)-1H-피라졸로[3,4-d]피리미딘-4-아민]	62 ± 3.8	–
